Results as given in PMC10355191 (Chemical research in toxicology, 2023).

Target: α2A-adrenergic receptor (Homo sapiens, UniProt P08913)
Sequence (P08913 whole entry): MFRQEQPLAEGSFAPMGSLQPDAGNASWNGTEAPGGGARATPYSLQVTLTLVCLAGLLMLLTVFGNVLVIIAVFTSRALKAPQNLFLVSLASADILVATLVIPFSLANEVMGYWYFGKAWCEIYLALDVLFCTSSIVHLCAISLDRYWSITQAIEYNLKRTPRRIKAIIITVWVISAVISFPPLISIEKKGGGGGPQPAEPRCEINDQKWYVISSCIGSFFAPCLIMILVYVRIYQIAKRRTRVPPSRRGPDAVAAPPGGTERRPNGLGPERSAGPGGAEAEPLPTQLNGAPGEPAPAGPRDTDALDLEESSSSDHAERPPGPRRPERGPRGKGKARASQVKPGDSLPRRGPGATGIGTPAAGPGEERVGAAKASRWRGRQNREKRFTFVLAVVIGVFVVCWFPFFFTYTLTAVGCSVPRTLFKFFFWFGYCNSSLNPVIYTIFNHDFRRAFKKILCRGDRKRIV

## N=C(N)N/N=C/c1c(Cl)cccc1Cl [E-GA, trans-guanabenz]
  % inhibition at 1 μM: 50
